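A five-concentration, 48-hour dose response in 96-well plates underlies each endpoint, interpolated linearly between surrounding concentrations. TGI is the concentration that stops growth completely.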
What was measured:
Assay in all cases: NCI-60 cell line screen, 48 h
[1] = system: 786-0 renal
[2] = system: A498 renal
[3] = system: A549 NSCLC
[4] = system: ACHN renal
[5] = system: BT-549 breast
[6] = system: CAKI-1 renal
[7] = system: CCRF-CEM leukemia
[8] = system: COLO 205 colon
[9] = system: DU-145 prostate
[10] = system: EKVX NSCLC
[11] = system: HCC-2998 colon
[12] = system: HCT-116 colon
[13] = system: HCT-15 colon
[14] = system: HL-60(TB) leukemia
[15] = system: HOP-62 NSCLC
[16] = system: HOP-92 NSCLC
[17] = system: HS 578T breast
[18] = system: HT29 colon
[19] = system: IGROV1 ovarian
[20] = system: K-562 leukemia
[21] = system: KM12 colon
[22] = system: LOX IMVI melanoma
[23] = system: M14 melanoma
[24] = system: MALME-3M melanoma
[25] = system: MCF7 breast
[26] = system: MDA-MB-231 breast
[27] = system: MDA-MB-435
[28] = system: MDA-N
[29] = system: MOLT-4 leukemia
[30] = system: NCI-H226 lung
[31] = system: NCI-H23 lung
[32] = system: NCI-H460 lung
[33] = system: NCI-H522 lung
[34] = system: NCI/ADR-RES ovarian
[35] = system: OVCAR-3 ovarian
[36] = system: OVCAR-4 ovarian
[37] = system: OVCAR-5 ovarian
[38] = system: OVCAR-8 ovarian
[39] = system: PC-3 prostate
[40] = system: RPMI-8226 leukemia
[41] = system: RXF 393 renal
[42] = system: SF-268 CNS
[43] = system: SF-295 CNS
[44] = system: SF-539 CNS
[45] = system: SK-MEL-2 melanoma
[46] = system: SK-MEL-28 melanoma
[47] = system: SK-MEL-5 melanoma
[48] = system: SK-OV-3 ovarian
[49] = system: SN12C renal
[50] = system: SNB-19 CNS
[51] = system: SNB-75 CNS
[52] = system: SR leukemia
[53] = system: SW-620 colon
[54] = system: T-47D breast
[55] = system: TK-10 renal
[56] = system: U251 CNS
[57] = system: UACC-257 melanoma
[58] = system: UACC-62 melanoma
[59] = system: UO-31 renal

Work on `O=[N+]([O-])c1ccc(CSc2c3ccccc3nc3ccccc23)cc1` yielded a TGI [1] of 4.22 µM, a TGI [2] of 58.8 µM and a TGI [3] of 51.4 µM. It also gave a TGI [4] of 12.9 µM, a TGI [5] of 33.4 µM and a TGI [6] of 29.6 µM. The TGI [7] was greater than 22.9 µM, the TGI [8] was 16.9 µM and the TGI [9] was 5.92 µM. For the same compound, the TGI [10] was 34.7 µM, the TGI [11] was 32.7 µM and the TGI [12] was 7.14 µM. For the same compound, the TGI [13] was 27.5 µM, the TGI [14] was 22.8 µM and the TGI [15] was 35.7 µM. It also gave a TGI [16] greater than 37.3 µM, a TGI [17] of 11.3 µM and a TGI [18] of 6.36 µM. It also gave a TGI [19] of 7.66 µM, a TGI [20] greater than 34.9 µM and a TGI [21] of 16.2 µM. For the same compound, the TGI [22] was 10.6 µM, the TGI [23] was 16.6 µM and the TGI [24] was 6.04 µM. The TGI [25] was greater than 100 µM, the TGI [26] was 27.4 µM and the TGI [27] was 14.3 µM. It also gave a TGI [28] of 23.1 µM, a TGI [29] greater than 21.2 µM and a TGI [30] of 35.8 µM. For the same compound, the TGI [31] was 25.5 µM, the TGI [32] was 46.9 µM and the TGI [33] was 3.62 µM. The TGI [34] was 52.1 µM, the TGI [35] was 14.4 µM and the TGI [36] was 31.1 µM. The TGI [37] was 32.5 µM, the TGI [38] was 10.8 µM and the TGI [39] was 20 µM. It also gave a TGI [40] of 9.29 µM, a TGI [41] of 18.5 µM and a TGI [42] of 22.8 µM. The TGI [43] was 41.7 µM, the TGI [44] was 9.43 µM and the TGI [45] was 32.3 µM. The TGI [46] was 13.5 µM, the TGI [47] was 30.5 µM and the TGI [48] was 41.4 µM. The TGI [49] was 9.81 µM, the TGI [50] was 37.4 µM and the TGI [51] was 33.1 µM. For the same compound, the TGI [52] was greater than 27.1 µM, the TGI [53] was greater than 24.4 µM and the TGI [54] was 4.18 µM. The TGI [55] was 17.4 µM, the TGI [56] was 20.9 µM and the TGI [57] was 10.5 µM. It also gave a TGI [58] of 29.3 µM and a TGI [59] of 17 µM.

— PubChem BioAssay (NCI)
